Columns and labels:
wildtype (N2) C. elegans = experiment: Lifespan assay, wildtype worms; type: in vivo
Method: Lifespan assays were performed as described previously. (McColl, G. et al. Pharmacogenetic analysis of lithium-induced delayed aging in Caenorhabditis elegans. J Biol Chem 283, 350-357 (2008). Briefly, the nematode growth media (NGM) plates were prepared under sterile conditions. 100 μL of concentrated stocks of each of the compounds used in this study were added onto a previously prepared NGM small plate (3 mL volume) immediately spread over the surface of the plate. The final concentrations quoted in the text assume an even distribution of compound throughout the 3 ml plate. The plates were then placed in a laminar flow hood at room temperature for 30 min and then 60 μL of a concentrated suspension of E. coli OP50 was spotted to form a circular lawn on the center of each plate. […] The first day of adulthood is Day 3 in survival curves. There was between-experiment variation in the magnitude of the lifespan extension observed with ThT which appeared to correlate with different suppliers and batches. ThT concentration should be optimized depending on batch and purity and stability of the compound. […] The optimal range for lifespan extension was between 25 and 75 μM.
Animals were scored as alive, dead or lost every other day. […] Animals that died from causes other than ageing, such as sticking to the plate walls, internal hatching of eggs (“bagging”) or gonadal extrusion were censored as were lost worms. Animals were transferred to fresh plates every 3-6 days. All lifespan experiments were performed at 20° C. unless otherwise stated. Survival curves were plotted and statistical analyses (log-rank test) were performed using the Prism 4 software (Graphpad™ Software, Inc., San Diego, Calif., USA).

PS3551 [hsf-1(sy441)I] = experiment: Lifespan assay, hsf-1 mutant; type: in vivo, Caenorhabditis elegans; settings: 50 μM ThT, 100 μM curcumin
Method: Lifespan assays were performed as described previously. (McColl, G. et al. Pharmacogenetic analysis of lithium-induced delayed aging in Caenorhabditis elegans. J Biol Chem 283, 350-357 (2008). Briefly, the nematode growth media (NGM) plates were prepared under sterile conditions. 100 μL of concentrated stocks of each of the compounds used in this study were added onto a previously prepared NGM small plate (3 mL volume) immediately spread over the surface of the plate. The final concentrations quoted in the text assume an even distribution of compound throughout the 3 ml plate. The plates were then placed in a laminar flow hood at room temperature for 30 min and then 60 μL of a concentrated suspension of E. coli OP50 was spotted to form a circular lawn on the center of each plate. Thirty late L4 larvae growing at 20° C. were transferred to fresh NGM plates with FUdR (75 μM) in presence or absence of the specified compounds and incubated at 20° C. The first day of adulthood is Day 3 in survival curves. […] ThT concentration should be optimized depending on batch and purity and stability of the compound.
Animals were scored as alive, dead or lost every other day. […] Animals that died from causes other than ageing, such as sticking to the plate walls, internal hatching of eggs (“bagging”) or gonadal extrusion were censored as were lost worms. […]

TJ1052 [age-1(hx546)II] = experiment: Lifespan assay, age-1 mutant; type: in vivo, Caenorhabditis elegans; settings: 50 μM ThT, 25° C.
Method: Lifespan assays were performed as described previously. (McColl, G. et al. Pharmacogenetic analysis of lithium-induced delayed aging in Caenorhabditis elegans. J Biol Chem 283, 350-357 (2008). Briefly, the nematode growth media (NGM) plates were prepared under sterile conditions. 100 μL of concentrated stocks of each of the compounds used in this study were added onto a previously prepared NGM small plate (3 mL volume) immediately spread over the surface of the plate. The final concentrations quoted in the text assume an even distribution of compound throughout the 3 ml plate. The plates were then placed in a laminar flow hood at room temperature for 30 min and then 60 μL of a concentrated suspension of E. coli OP50 was spotted to form a circular lawn on the center of each plate. Thirty late L4 larvae growing at 20° C. were transferred to fresh NGM plates with FUdR (75 μM) in presence or absence of the specified compounds and incubated at 20° C. The first day of adulthood is Day 3 in survival curves. There was between-experiment variation in the magnitude of the lifespan extension observed with ThT which appeared to correlate with different suppliers and batches. ThT concentration should be optimized depending on batch and purity and stability of the compound. […]
Animals were scored as alive, dead or lost every other day. […]

[1] = test system: aggregation-prone soluble oligomeric protein (A11 antibody) in CL4176; experiment: A11 immunolocalization of soluble oligomeric protein, CL4176; type: in vivo, Caenorhabditis elegans; settings: CL4176, 50 μM ThT
Method: For fluorescent microscopy, TJ356 zIs356 IV [daf-16::daf-16-gfp+rol-6] or CF2189 Is001(skn-1::gfp+rol-6) were paralyzed with 1 mM levamisole mounted on 1% agarose pads and imaged using Olympus BX51 (60× objective) and HCImage software (Hamamatsu). For immunofluorescence, N2, […], CB1157 unc-54(e1157) or CL4176 dvIs27 [myo-3::Aβ(3 to 42)-let 3′UTR(pAF29); pRF4 (rol-6(su1006))] worms were treated for 24-36 h with or without 50 μM ThT at 25° C. After this period the worms were collected, rinsed, and fixed in 4% paraformaldehyde overnight. […] Paramyosin and perlecans were detected with primary monoclonal antibodies 5-23 and MH3 (developed by Henry Epstein and Robert H. Waterston and obtained from the Developmental Studies Hybridoma Bank developed under the auspices of the NICHD and maintained by The University of Iowa, Department of Biology, Iowa City, Iowa 52242) and AlexaFluor 633 goat anti-mouse (Molecular Probes) as secondary antibody. Soluble oligomers and Aβ peptide were detected with anti polyclonal All (Invitrogen) and 6E10 monoclonal (Covance) primary antibodies, respectively, with AlexaFluor 568 goat anti-rabbit and AlexaFluor 488 goat anti-mouse (Molecular Probes) as secondary antibodies. Images were processed and quantified by using Image Analyst MK II (Novato, Calif.).

HSP-70 = experiment: Western blot HSP-70; type: in vivo, Caenorhabditis elegans; settings: 50 μM ThT, 4 and 7 days of treatment
Method: Peptide corresponding to amino acids 110-145 ([…]; SEQ ID NO:1) of HSP-16.2 was used to commercially synthesize antiserum (Invitrogen). Briefly, KLH-peptide was emulsified by mixing with an equal volume of Freund's adjuvant and injected into three subcutaneous dorsal sites for a total of 0.1 mg of peptide for immunization. The animals (rabbits) were bled, the blood allowed to clot and the serum collected by centrifugation. Monoclonal HSP-70 and Polyclonal HSF-1 primary antibodies were from stressgen (N27F3-4 and SPA-901, respectively).
Worms were transferred to siliconized eppendorf tubes, washed once in S-basal and frozen in liquid N2. Standard SDS-PAGE was performed using (4-12%) NOVEX gels and IVIES running buffer. Following transfer PVDF (BioRad) membranes were incubated with antisera (1:10000) or primary antibodies (1:1000) diluted in blocking buffer and then with secondary, goat anti-rabbit IgG antibody/horseradish peroxidase conjugate (Pierce), diluted 1:25000. Detection was undertaken with chemiluminescent reagents (SuperSignal, Pierce) and standard autoradiography.

[2] = absence of FUdR, 50 μM, 20° C., 4 independent experiments
[3] = sterile N2 worms, 50 or 100 μM throughout adult life

`Cc1ccc2c(c1)sc(-c1ccc(N(C)C)cc1)[n+]2C.[Cl-]` [ThT, 4-(3,6-dimethyl-1,3-benzothiazol-3-ium-2-yl)-N,N-dimethylaniline chloride] was tested, and the “effect on lifespan at higher doses” value (wildtype (N2) C. elegans; 500 μM) was “appears toxic and significantly shortens lifespan”, the “Average increase in median lifespan” value (wildtype (N2) C. elegans; [2]) was 40% and the “increase in median lifespan, range over experiments” value (wildtype (N2) C. elegans; [2]) was 30-70%. The “increase in maximal lifespan” value (wildtype (N2) C. elegans; [3]) was 43-78%, the “increase in median lifespan” value (wildtype (N2) C. elegans; [3]) was 60% and the “lifespan of hsf-1(sy441) mutant” value (PS3551 [hsf-1(sy441)I]) was “does not increase lifespan”. The “lifespan of age-1(hx546) mutant” value (TJ1052 [age-1(hx546)II]) was “extended the lifespan”, the A11-positive oligomeric material [1] was “significantly decreased” and the HSP-70 protein levels (HSP-70) was “up-regulated”.
